Measurements as given in PMC6001238, “Iterative Chemical Engineering of Vancomycin Leads to Novel Vancomycin Analogs With a High in Vitro Therapeutic Index” (Frontiers in Microbiology, 2018).
≈ marks a conversion by molar mass, not a printed value.

Columns and labels:
E. faecalis VSE 1 = assay: MIC, broth microdilution, vancomycin-sensitive E. faecalis (VSE 1); type: cell-based, Enterococcus faecalis; conditions: for MIC: Enterococcus faecalis VSE 1 (vancomycin-sensitive), read-out: MIC; for MIC-fold improvement vs. vancomycin: VSE 1, ratio of MIC of vancomycin and MIC of analogue
Procedure, shortened: (§1)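 CLSI broth microdilution; water and uninoculated-broth controls; one arm supplemented with vancomycin, final 10 μM, given with analogue or control antibiotic.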

E. faecalis VRE 6 = assay: MIC, broth microdilution, vancomycin-resistant E. faecalis VRE 6 (VanA); type: cell-based, Enterococcus faecalis; conditions: for MIC: Enterococcus faecalis VRE 6 (vancomycin-resistant), read-out: MIC; for MIC-fold improvement vs. vancomycin: VRE 6, ratio of MIC of vancomycin and MIC of analogue
Procedure, shortened: as §1

E. faecalis VRE 53 = assay: MIC, broth microdilution, vancomycin-resistant E. faecalis VRE 53 (VanA); type: cell-based, Enterococcus faecalis; conditions: for MIC: Enterococcus faecalis VRE 53 (vancomycin-resistant), read-out: MIC; for MIC-fold improvement vs. vancomycin: VRE 53, ratio of MIC of vancomycin and MIC of analogue
Procedure, shortened: as §1

E. faecalis VRE 29 = assay: MIC, broth microdilution, vancomycin-resistant E. faecalis VRE 29 (VanA); type: cell-based, Enterococcus faecalis; conditions: for MIC: Enterococcus faecalis VRE 29 (vancomycin-resistant), read-out: MIC; for MIC-fold improvement vs. vancomycin: VRE 29, ratio of MIC of vancomycin and MIC of analogue
Procedure, shortened: as §1

E. faecalis VRE 37 = assay: MIC, broth microdilution, vancomycin-resistant E. faecalis VRE 37 (VanA); type: cell-based, Enterococcus faecalis; conditions: for MIC: Enterococcus faecalis VRE 37 (vancomycin-resistant), read-out: MIC
Procedure, shortened: as §1

[1] = tested on: Murine leukemia (L1210) cells; assay: Cytostatic activity, L1210 cell proliferation; type: cell-based; conditions: mean ± SD of three experiments; highest concentration tested 250 µM; 2 days; read-out: Toxicity (IC50) L1210
Procedure, shortened: (§2)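 Test compounds, serially diluted, received an equal volume of cell suspension at 300,000–500,000 cells/mL. After 37°C incubation (2 days for L1210, 3 for CEM, 4 for HeLa), cells were enumerated by Coulter counting and 50%-inhibitory concentrations calculated per cell type.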

[2] = tested on: human T-lymphocyte (CEM) cells; assay: Cytostatic activity, CEM cell proliferation; type: cell-based; conditions: mean ± SD of three experiments; highest concentration tested 250 µM; 3 days; read-out: Toxicity (IC50) CEM
Procedure, shortened: as §2

[3] = tested on: human cervix carcinoma (HeLa) cells; assay: Cytostatic activity, HeLa cell proliferation; type: cell-based; conditions: mean ± SD of three experiments; highest concentration tested 250 µM; 4 days; read-out: Toxicity (IC50) HeLa
Procedure, shortened: as §2

[4] = tested on: L1210, CEM and HeLa cell lines; assay: Cytostatic activity, average or summary over L1210, CEM and HeLa; type: cell-based; conditions: average of L1210, CEM and HeLa; read-out: Toxicity (IC50) Average
Procedure, shortened: as §2

[5] = tested on: S. aureus VSSA (ATCC 6538); assay: MIC, broth microdilution, vancomycin-sensitive S. aureus (VSSA/MSSA, ATCC 6538); type: cell-based, Staphylococcus aureus; conditions: for MIC: Staphylococcus aureus VSSA, read-out: MIC; for MIC-fold improvement vs. vancomycin: VSSA, ratio of MIC of vancomycin and MIC of analogue
Procedure, shortened: as §1

S. aureus VISA/HIP5827 = assay: MIC, broth microdilution, vancomycin-intermediate S. aureus VISA HIP5827; type: cell-based, Staphylococcus aureus; conditions: for MIC: Staphylococcus aureus VISA/HIP5827, read-out: MIC; for MIC-fold improvement vs. vancomycin: VISA/HIP5827, ratio of MIC of vancomycin and MIC of analogue
Procedure, shortened: as §1

S. aureus VRSA = assay: MIC, broth microdilution, vancomycin-resistant S. aureus (VRSA); type: cell-based, Staphylococcus aureus; conditions: for MIC-fold improvement vs. vancomycin: VRSA, ratio of MIC of vancomycin and MIC of analogue; for MIC: Staphylococcus aureus VRSA, read-out: MIC
Procedure, shortened: as §1

MRSA KS2 = assay: MIC, broth microdilution, MRSA KS2; type: cell-based, Staphylococcus aureus; conditions: for MIC-fold improvement vs. vancomycin: MRSA KS2, ratio of MIC of vancomycin and MIC of analogue; for MIC: Staphylococcus aureus MRSA KS2, read-out: MIC
Procedure, shortened: as §1

MRSA KS6 = assay: MIC, broth microdilution, MRSA KS6; type: cell-based, Staphylococcus aureus; conditions: for MIC-fold improvement vs. vancomycin: MRSA KS6, ratio of MIC of vancomycin and MIC of analogue; for MIC: Staphylococcus aureus MRSA KS6, read-out: MIC
Procedure, shortened: as §1

MRSA KS89 = assay: MIC, broth microdilution, MRSA KS89; type: cell-based, Staphylococcus aureus; conditions: for MIC-fold improvement vs. vancomycin: MRSA KS8, ratio of MIC of vancomycin and MIC of analogue; for MIC: Staphylococcus aureus MRSA KS8, read-out: MIC
Procedure, shortened: as §1

MRSA KS1 = assay: MIC, broth microdilution, MRSA KS1; type: cell-based, Staphylococcus aureus; conditions: for MIC-fold improvement vs. vancomycin: MRSA KS1, ratio of MIC of vancomycin and MIC of analogue; for MIC: Staphylococcus aureus MRSA KS1, read-out: MIC
Procedure, shortened: as §1

| Compound | MIC (E. faecalis VSE 1) | MIC-fold improvement vs. vancomycin (E. faecalis VSE 1) | MIC (E. faecalis VRE 6) | MIC-fold improvement vs. vancomycin (E. faecalis VRE 6) | MIC (E. faecalis VRE 53) | MIC-fold improvement vs. vancomycin (E. faecalis VRE 53) | MIC (E. faecalis VRE 29) | MIC-fold improvement vs. vancomycin (E. faecalis VRE 29) | MIC (E. faecalis VRE 37) | IC50 [1] | IC50 [2] | IC50 [3] | IC50 [4] | MIC [5] | MIC-fold improvement vs. vancomycin [5] | MIC (S. aureus VISA/HIP5827) | MIC-fold improvement vs. vancomycin (S. aureus VISA/HIP5827) | MIC-fold improvement vs. vancomycin (S. aureus VRSA) | MIC-fold improvement vs. vancomycin (MRSA KS2) | MIC (MRSA KS2) | also measured |
| --- | --- | --- | --- | --- | --- | --- | --- | --- | --- | --- | --- | --- | --- | --- | --- | --- | --- | --- | --- | --- | --- |
| CNC(CC(C)C)C(=O)NC1C(=O)NC(CC(N)=O)C(=O)NC2C(=O)NC3C(=O)NC(C(=O)NC(C(=O)NCCCNC(=O)c4cc5ccccc5s4)c4cc(O)cc(O)c4-c4cc3ccc4O)C(O)c3ccc(c(Cl)c3)Oc3cc2cc(c3OC2OC(CO)C(O)C(O)C2OC2CC(C)(N)C(O)C(C)O2)Oc2ccc(cc2Cl)C1O (stereo not drawn) [Vanc-26] | 0.20 µM (≈ 0.333 µg/mL) | 8 | 3.13 µM (≈ 5.21 µg/mL) | 64 | 25 µM (≈ 41.6 µg/mL) | 16 | 6.25 µM (≈ 10.4 µg/mL) | 64 | 12.5 µM (≈ 20.8 µg/mL) | > 250 µM | > 250 µM | 42 ± 23 µM | 181 µM | 0.39 µM (≈ 0.65 µg/mL) | 2 | 0.39 µM (≈ 0.65 µg/mL) | 16 | 32 | 2 | 0.39 µM (≈ 0.65 µg/mL) | MIC-fold improvement vs. vancomycin (MRSA KS6): 2; MIC (MRSA KS6): 0.39 µM (≈ 0.65 µg/mL); MIC-fold improvement vs. vancomycin (MRSA KS89): 2; MIC (MRSA KS89): 0.39 µM (≈ 0.65 µg/mL); MIC-fold improvement vs. vancomycin (MRSA KS1): 2; MIC (MRSA KS1): 0.39 µM (≈ 0.65 µg/mL) |
| CNC(CC(C)C)C(=O)NC1C(=O)NC(CC(N)=O)C(=O)NC2C(=O)NC3C(=O)NC(C(=O)NC(C(=O)NCCCNC(=O)c4ccc5ccccc5n4)c4cc(O)cc(O)c4-c4cc3ccc4O)C(O)c3ccc(c(Cl)c3)Oc3cc2cc(c3OC2OC(CO)C(O)C(O)C2OC2CC(C)(N)C(O)C(C)O2)Oc2ccc(cc2Cl)C1O (stereo not drawn) [Vanc-27] | 0.39 µM (≈ 0.648 µg/mL) | 4 | 3.13 µM (≈ 5.2 µg/mL) | 64 | 25 µM (≈ 41.5 µg/mL) | 16 | 12.5 µM (≈ 20.8 µg/mL) | 32 | 12.5 µM (≈ 20.8 µg/mL) | > 250 µM | 229 ± 30 µM | 76 ± 8 µM | 185 µM | 0.39 µM (≈ 0.648 µg/mL) | 2 | 0.39 µM (≈ 0.648 µg/mL) | 16 | 16 | 2 | 0.39 µM (≈ 0.648 µg/mL) | MIC (S. aureus VRSA): 6.25 µM (≈ 10.4 µg/mL); MIC-fold improvement vs. vancomycin (MRSA KS6): 2; MIC (MRSA KS6): 0.39 µM (≈ 0.648 µg/mL); MIC-fold improvement vs. vancomycin (MRSA KS89): 1; MIC (MRSA KS89): 0.78 µM (≈ 1.3 µg/mL); MIC-fold improvement vs. vancomycin (MRSA KS1): 2; MIC (MRSA KS1): 0.39 µM (≈ 0.648 µg/mL) |
| CN[C@H](CC(C)C)C(=O)N[C@H]1C(=O)N[C@@H](CC(N)=O)C(=O)N[C@H]2C(=O)N[C@H]3C(=O)N[C@H](C(=O)N[C@H](C(=O)NCCCNC(=O)c4ccc5ccccc5c4)c4cc(O)cc(O)c4-c4cc3ccc4O)[C@H](O)c3ccc(c(Cl)c3)Oc3cc2cc(c3O[C@@H]2O[C@H](CO)[C@@H](O)[C@H](O)[C@H]2O[C@H]2C[C@](C)(N)[C@H](O)[C@H](C)O2)Oc2ccc(cc2Cl)[C@H]1O [Vanc-28] | 0.20 µM (≈ 0.332 µg/mL) | 8 | 3.13 µM (≈ 5.19 µg/mL) | 64 | 25 µM (≈ 41.5 µg/mL) | 16 | 6.25 µM (≈ 10.4 µg/mL) | 64 | 12.5 µM (≈ 20.7 µg/mL) | > 250 µM | 229 ± 12 µM | 68 ± 16 µM | 182 µM | 0.39 µM (≈ 0.647 µg/mL) | 2 | 0.39 µM (≈ 0.647 µg/mL) | 16 | 32 | 4 | 0.20 µM (≈ 0.332 µg/mL) | MIC (S. aureus VRSA): 3.13 µM (≈ 5.19 µg/mL); MIC-fold improvement vs. vancomycin (MRSA KS6): 4; MIC (MRSA KS6): 0.20 µM (≈ 0.332 µg/mL); MIC-fold improvement vs. vancomycin (MRSA KS89): 2; MIC (MRSA KS89): 0.39 µM (≈ 0.647 µg/mL); MIC-fold improvement vs. vancomycin (MRSA KS1): 2; MIC (MRSA KS1): 0.39 µM (≈ 0.647 µg/mL) |
| CNC(CC(C)C)C(=O)NC1C(=O)NC(CC(N)=O)C(=O)NC2C(=O)NC3C(=O)NC(C(=O)NC(C(=O)NCCCNC(=O)c4ccc5cc(O)ccc5c4)c4cc(O)cc(O)c4-c4cc3ccc4O)C(O)c3ccc(c(Cl)c3)Oc3cc2cc(c3OC2OC(CO)C(O)C(O)C2OC2CC(C)(N)C(O)C(C)O2)Oc2ccc(cc2Cl)C1O (stereo not drawn) [Vanc-30] | 0.39 µM (≈ 0.653 µg/mL) | 4 | 3.13 µM (≈ 5.24 µg/mL) | 64 | 25 µM (≈ 41.9 µg/mL) | 16 | 12.5 µM (≈ 20.9 µg/mL) | 32 | 25 µM (≈ 41.9 µg/mL) | > 250 µM | > 250 µM | 45 ± 25 µM | 182 µM | 0.39 µM (≈ 0.653 µg/mL) | 2 | 0.39 µM (≈ 0.653 µg/mL) | 16 | 32 | 2 | 0.39 µM (≈ 0.653 µg/mL) | MIC-fold improvement vs. vancomycin (E. faecalis VRE 37; VRE 37, ratio of MIC of vancomycin and MIC of analogue): 16; MIC (S. aureus VRSA): 3.13 µM (≈ 5.24 µg/mL); MIC-fold improvement vs. vancomycin (MRSA KS6): 2; MIC (MRSA KS6): 0.39 µM (≈ 0.653 µg/mL); MIC-fold improvement vs. vancomycin (MRSA KS89): 2; MIC (MRSA KS89): 0.39 µM (≈ 0.653 µg/mL); MIC-fold improvement vs. vancomycin (MRSA KS1): 2; MIC (MRSA KS1): 0.39 µM (≈ 0.653 µg/mL) |
